In patent US9850219B1, “Phenothiazine derivatives and methods of use thereof” (Acenda Pharma, Inc., priority 2016, dated 2017):

Experiments:
H1299 = assay: Cytotoxicity, sulforhodamine B (SRB) assay, H1299; assay type: cell-based; details: Homo sapiens, NCI-H1299, H1299, 48 h
lung cancer cells = assay: Cytotoxicity SRB assay, summary of Table 2; assay type: cell-based, Human; details: summary in words of Table 2
Procedure, shortened: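 Cells plated at 2000/well, treated on day 3 with 0–50 μM compound for 48 h. Viability by SRB: TCA fixation, SRB staining, Tris solubilisation, absorbance at 530 nm, as percent of solvent control. IC50 calculated from triplicate independent experiments across concentrations.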

H441GL = assay: Cytotoxicity, sulforhodamine B (SRB) assay, H441GL; assay type: cell-based, Human; details: Homo sapiens, 48 h, NA indicates no activity
NSCLC cells = details: from WO2015/184794, WO2013/060305, Yeh et al. 2012; cited from earlier work
A549 = assay: Cytotoxicity, sulforhodamine B (SRB) assay, A549; assay type: cell-based, Human; details: Homo sapiens, A549, 48 h, NA indicates no activity
[1] = system: CSCs in human NSCLC cell lines; details: from US 2014/0294994, WO2013/060305, WO2015/184794; cited from earlier work

Row | Structure (SMILES) | IC50 (H1299) | inhibition of cell proliferation of lung cancer cells (lung cancer cells) | IC50 (H441GL) | cytotoxicity to NSCLC cells (NSCLC cells) | IC50 (A549) | anti-tumor effects, growth of CSCs in human NSCLC cell lines [1]
1 | Clc1ccc2c(c1)N(CCCN1CCNCC1)c1ccccc1S2 [NDP, 10-[3-(1-Piperazinyl)propyl]-2-chloro-10H-phenothiazine, reference compound] | 6.6 µM | inhibit cell proliferation | 8.4 µM | shown cytotoxicity | 9.7 µM | –
2 | CN1CCN(CCCN2c3ccccc3Sc3ccc(Cl)cc32)CC1 [PCP, prochlorperazine] | – | inhibit cell proliferation | – | shown cytotoxicity | – | inhibiting the growth of CSCs
3 | CN1CCN(CCCN2c3ccccc3Sc3ccc(C(F)(F)F)cc32)CC1 [TFP, trifluoperazine, reference compound] | 28.7 µM | inhibit cell proliferation | 21.6 µM | shown cytotoxicity | 23.5 µM | inhibiting the growth of CSCs
